The term EC50 denotes the concentration at which the effect is half-maximal. What is called CC50 is the concentration giving 50% cytotoxicity. For orientation: inhibition means how much of the control response was suppressed. Higher therefore signals strong suppression. As usually defined, the IC50 is the concentration that gives 50% inhibition. Low values mean higher potency, high ones lower potency.

The values below come from ChEMBL document CHEMBL3751817, “Anti-HIV-1 activity of a tripodal receptor that recognizes mannose oligomers” (Eur J Med Chem, 2015).

In data set [1] the test system is Human immunodeficiency virus 1. Briefly: Antiviral activity against HIV1 3B infected in human CD4+ T-lymphocyte CEM cells assessed as inhibition of virus-induced cytopathicity after 4 to 5 days by microscopic analysis. Conditions: Human immunodeficiency virus 1, 3B, CCRF-CEM. It counts as functional, organism-based.
The test system of data set [2] is Human immunodeficiency virus 2. The data set is described as follows: Antiviral activity against HIV2 ROD infected in human CD4+ T-lymphocyte CEM cells assessed as inhibition of virus-induced cytopathicity after 4 to 5 days by microscopic analysis. It counts as functional, organism-based. Conditions: Human immunodeficiency virus 2, ISOLATE ROD, CCRF-CEM.
The next data set has as its system CCRF-CEM. Briefly: Cytotoxicity against human CD4+ T-lymphocyte CEM cells. Format: cell-based.
Data set [3] concerns Human immunodeficiency virus 1. Briefly: Binding affinity to recombinant HIV1 3B glycoprotein-120 after 5 mins by sensorchip reverse surface plasmon resonance assay.
Data set [4] concerns Human immunodeficiency virus. Briefly: Inhibition of HIV integrase-mediated strand transfer activity using 5'-[gamma-32P]-labeled full length 21T DNA at 50 nM after 2 hrs.
Data set [5] has as its system Human immunodeficiency virus 1. The data set is described as follows: Binding affinity to recombinant HIV1 3B glycoprotein-120 after 5 mins by sensorchip direct surface plasmon resonance assay. On the technique in general: Surface plasmon resonance follows binding to a sensor surface in real time, without labels.
Data set [6] is described as follows: Inhibition of HIV integrase-mediated strand transfer activity using precleaved 19T duplex oligonucleotide after 2 hrs. Details: species or system Human immunodeficiency virus.
In data set [7] the test system is Human immunodeficiency virus 1. Briefly: Binding affinity to recombinant HIV1 3B glycoprotein-120 at 5 uM after 5 mins by sensorchip direct surface plasmon resonance assay in presence of 100 and 400 uM mann (alpha-1,2)3.
Data set [8] is described as follows: Inhibition of HIV integrase-mediated 3'-processing activity using 5'-[gamma-32P]-labeled full length 21T DNA after 2 hrs. Details: species or system Human immunodeficiency virus.
The subject of data set [9] is Human immunodeficiency virus 1. Briefly: Binding affinity to recombinant HIV1 3B glycoprotein-120 at 5 uM after 5 mins by sensorchip direct surface plasmon resonance assay in presence of 100 and 400 uM mann (alpha-1,3-1,6)3.

Active and inactive are the calls of the source. The rule behind the calls is not given here.

Turning to `CCc1c(CNC(=O)C2=C[C@H](O)[C@H](O)[C@@H](O)C2)c(CC)c(CNC(=O)C2=C[C@H](O)[C@H](O)[C@@H](O)C2)c(CC)c1CNC(=O)C1=C[C@H](O)[C@H](O)[C@@H](O)C1`, the EC50 in data set [1] and in data set [2] was over 250 µM each time. For the same compound, the CC50 in the data set on CCRF-CEM was over 250 µM.
With `CCc1c(CNC(=O)c2ccc[nH]2)c(CC)c(CNC(=O)c2ccc[nH]2)c(CC)c1CNC(=O)c1ccc[nH]1`, the EC50 in data set [1] and in [2] was over 10 µM in each case. This compound registered a cytotoxic concentration (CC50) in the data set with CCRF-CEM of over 10 µM.
With `CCc1c(CNC(=O)c2cccc(O)c2O)c(CC)c(CNC(=O)c2cccc(O)c2O)c(CC)c1CNC(=O)c1cccc(O)c1O`, the concentration for a half-maximal effect (EC50) in [1] and in data set [2] was over 2 µM in each case. For the same compound, the half-maximal cytotoxic concentration (CC50) with CCRF-CEM worked out at 5 µM.
Consider `CCc1c(CNC(=O)CCC(=O)NCCCOCCOCCOCCCN)c(CC)c(CNC(=O)c2ccc(O)c(O)c2O)c(CC)c1CNC(=O)c1ccc(O)c(O)c1O`, for which the outcome in [3] was Active.
Consider `C[C@@H]1CCO[C@H]2Cn3cc(C(=O)NCc4ccc(F)cc4F)c(=O)c(O)c3C(=O)N12`, for which the inhibition in data set [4] is over 50%.
For the compound `CCc1c(CNC(=O)c2cc(O)c(O)c(O)c2)c(CC)c(CNC(=O)c2cc(O)c(O)c(O)c2)c(CC)c1CNC(=O)c1cc(O)c(O)c(O)c1`, the EC50 in data set [1] and in [2] was over 10 µM in each case. In the data set on CCRF-CEM, this compound returned a cytotoxic concentration (CC50) of 49 µM.
On to `CCc1c(CNC(=O)C2C[C@H](O)C(O)[C@@H](O)C2)c(CC)c(CNC(=O)C2C[C@H](O)C(O)[C@@H](O)C2)c(CC)c1CNC(=O)C1C[C@H](O)C(O)[C@@H](O)C1` (some centres not stated), for which the EC50 in data set [1] and in data set [2] was over 250 µM throughout. The same compound showed a CC50 with CCRF-CEM of over 250 µM.
Take `CCc1c(CNCCCCNC(=O)c2ccc(O)c(O)c2O)c(CC)c(CNCCCCNC(=O)c2ccc(O)c(O)c2O)c(CC)c1CNCCCCNC(=O)c1ccc(O)c(O)c1O`: the concentration giving a half-maximal response (EC50) in data set [1] and in data set [2] was over 10 µM throughout. The compound also showed a CC50 in the data set on CCRF-CEM of 25 µM.
Regarding `CCc1c(CNC(=O)c2c(O)cc(O)cc2O)c(CC)c(CNC(=O)c2c(O)cc(O)cc2O)c(CC)c1CNC(=O)c1c(O)cc(O)cc1O`, the EC50 in data set [1] and in data set [2] was over 50 µM each time. The same compound came in with a 50% cytotoxic concentration (CC50) with CCRF-CEM of 112 µM.
For `CN[C@H]1[C@@H](O[C@H]2O[C@@H](CO)[C@H](O)[C@@H](OS(=O)(=O)O)[C@@H]2O)[C@H](O)[C@@H](O[C@H]2c3cc(C)c(C(=O)N[C@H](C)C(=O)O)c(O)c3-c3c(cc4c(c3O)C(=O)c3cc(OC)cc(O)c3C4=O)[C@@H]2O)O[C@H]1C`, the outcome in data set [5] was Active.
For the compound `CCc1c(CNC(=O)c2ccc(O)c(O)c2O)c(CC)c(CNC(=O)[C@H]2C[C@@H](C(=O)NCc3c(CC)c(CNC(=O)c4ccc(O)c(O)c4O)c(CC)c(CNC(=O)c4ccc(O)c(O)c4O)c3CC)C[C@@H](C(=O)NCc3c(CC)c(CNC(=O)c4ccc(O)c(O)c4O)c(CC)c(CNC(=O)c4ccc(O)c(O)c4O)c3CC)C2)c(CC)c1CNC(=O)c1ccc(O)c(O)c1O`, the EC50 in data set [1] and in [2] was over 10 µM each time. The same compound had a half-maximal cytotoxic concentration (CC50) in the data set on CCRF-CEM of 25 µM.
As to `CCc1c(CNCCNC(=O)c2ccc(O)c(O)c2O)c(CC)c(CNCCNC(=O)c2ccc(O)c(O)c2O)c(CC)c1CNCCNC(=O)c1ccc(O)c(O)c1O`, the EC50 in data set [1] and in data set [2] was over 10 µM each time. The compound also returned a CC50 in the data set on CCRF-CEM of 117 µM.
Regarding `CN[C@@H]1[C@H](O[C@@H]2OC[C@@H](O)[C@H](O)[C@H]2O)[C@@H](O)[C@H](O[C@H]2c3cc(C)c(C(=O)N[C@H](C)C(=O)O)c(O)c3-c3c(cc4c(c3O)C(=O)c3cc(OC)cc(O)c3C4=O)[C@@H]2O)O[C@@H]1C` [PRADIMICIN A], the EC50 in data set [1] came out at 3.4 µM. Further, the CC50 in the data set on CCRF-CEM was over 50 µM.
As to `CCc1c(CNC(=O)c2ccc(O)cc2O)c(CC)c(CNC(=O)c2ccc(O)cc2O)c(CC)c1CNC(=O)c1ccc(O)cc1O`, the EC50 in data set [1] and in [2] was over 4 µM throughout. Moreover, the half-maximal cytotoxic concentration (CC50) in the data set on CCRF-CEM came to 28 µM.
Turning to `CCc1c(CNC(=O)c2ccc(O)c(O)c2O)c(CC)c(CNC(=O)c2ccc(O)c(O)c2O)c(CC)c1CNC(=O)c1ccc(O)c(O)c1O`, the EC50 amounted to 6.3 µM in data set [1] and 41 µM in data set [2]. For the same compound, the figures for the half-maximal inhibitory concentration (IC50) in [6] and in [8] were 10.9 µM and 31 µM, respectively. Also, the outcome in data set [7] and in data set [9] was inactive. For the same compound, the outcome in data set [5] was Active. Also, the CC50 in the data set with CCRF-CEM amounted to 144 µM.
Take `CCc1c(CNC(=O)CCc2ccc(O)c(O)c2)c(CC)c(CNC(=O)CCc2ccc(O)c(O)c2)c(CC)c1CNC(=O)CCc1ccc(O)c(O)c1`: the EC50 in data set [1] and in [2] was over 10 µM throughout. The compound further displayed a half-maximal cytotoxic concentration (CC50) in the data set with CCRF-CEM of 22 µM.
Take `CCc1c(CNC(=O)c2ccc(N)cc2)c(CC)c(CNC(=O)c2ccc(N)cc2)c(CC)c1CNC(=O)c1ccc(N)cc1`: the concentration giving a half-maximal response (EC50) in [1] and in data set [2] was over 250 µM in each case. In addition, the 50% cytotoxic concentration (CC50) in the data set on CCRF-CEM was over 250 µM.
With `CCc1c(CN2CCN(C(=O)c3ccc(O)c(O)c3O)CC2)c(CC)c(CN2CCN(C(=O)c3ccc(O)c(O)c3O)CC2)c(CC)c1CN1CCN(C(=O)c2ccc(O)c(O)c2O)CC1`, the 50% effective concentration (EC50) in data set [1] and in [2] was over 10 µM each time. Further, the half-inhibitory concentration (IC50) stood at 5.6 µM in [6] and 42 µM in data set [8]. The cytotoxic concentration (CC50) in the data set with CCRF-CEM was 36 µM.
Regarding `CCc1c(CNC(=O)c2ccc(N)nc2)c(CC)c(CNC(=O)c2ccc(N)nc2)c(CC)c1CNC(=O)c1ccc(N)nc1`, the EC50 in data set [1] and in data set [2] was over 250 µM each time. This compound also showed a CC50 in the data set with CCRF-CEM of over 250 µM.
